{
  "source": "paper PMC12637173",
  "about": "“Investigation on LASSBio‐1971 and LASSBio‐1974 Cellular Cytotoxic Mechanism and Their Comparative DMPK Profile” (Archiv Der Pharmazie, 2025)",
  "key": {"PC‐9 (EGFRL858R) [1]": {"system": "PC‐9 (EGFRL858R)", "assay": "Cell cycle by flow cytometry (Muse Cell Cycle Kit)", "format": "cell-based, human", "details": "PC‐9, 24 h, 1 µM", "procedure": "(§1) PC‐9 (EGFRL858R) cell line was seeded at 1 × 10^5 cells/well in a 24‐well plate. […] All flow cytometry assays were performed using Guava Muse Cell Analyzer (Cytek Biosciences) following each kit user's guide provided by the manufacturer. Muse Cell Cycle Kit (catalog no. MCH100106) was chosen to evaluate cell cycle arresting. Apoptosis features were evaluated using Muse Annexin V & Dead Cell Kit (catalog no. MCH100105), as well as inactivation of EGFR using Muse EGFR‐RTK Activation Dual Detection Kit (catalog no. MCH200102). Statistical analysis was performed using one‐way ANOVA on data collected in duplicate from at least two independent experiments (n ≥ 2), employing GraphPad Prism software (version 8.0)."}, "EGFRwt": {"system": "EGFRwt", "design": "method as in PMID 30626888", "details": "in vitro enzymatic model; cited from earlier work"}, "NCI‐H292 (EGFRwt) [2]": {"system": "NCI‐H292 (EGFRwt)", "assay": "Cell viability by sulforhodamine B (SRB) assay, NCI-H292", "details": "Homo sapiens, NCI-H292, 72 h, read-out: cytotoxic activity CC50, NCI‐H292 (EGFRwt)", "experimental": "(§3) All cell lines were harvested at 37°C and 5% CO2 atmosphere humid incubator.\n(§4) Cells were plated at 1 × 10^4 to 3 × 10^4 cells/well and seeded in a 96‐well plate. After 16–24 h of cell acclimatization, compounds were added at 0.003–100 µM concentrations (1% DMSO as vehicle). The experimental procedure was handled as described by Vichai and Kirtikara [63]. After incubation, cells were fixed with trichloroacetic acid (TCA) (10% m/v) for 1 h at 4°C. SRB (0.004% w/v in acetic acid 1%) was added for 30 min and washed with acetic acid 1%."}, "PC‐9 (EGFRL858R) [3]": {"system": "PC‐9 (EGFRL858R)", "assay": "Apoptosis by flow cytometry (Muse Annexin V & Dead Cell Kit)", "format": "cell-based, human", "details": "PC‐9, 72 h", "procedure": "as §1"}, "[4]": {"system": "NCI‐H1975 (EGFRL858R/T790M)", "assay": "Cell viability by MTT assay, NCI-H1975", "details": "Homo sapiens; for IC50: read-out: cytotoxic activity, NCI-H1975 (EGFRL858R/T790M)", "experimental": "as §3\n(§5) Cells were plated at 1 × 10^4 to 3 × 10^4 cells/well and seeded in a 96‐well plate. After 16–24 h of cell acclimatization, compounds were added at 0.003–100 µM concentrations (1% DMSO vehicle). After 72 h, treatment was interrupted to measure cell viability using MTT (3‐(4,5‐dimethylthiazol‐2‐yl)‐2,5‐diphenyltetrazolium bromide) (50 µg/mL) [62]. Formazan formed by viable cells was solubilized after 4 h incubation with SDS/HCl solution (0.1 g/mL) and read at 570 nm in spectrophotometer."}, "[5]": {"system": "NCI‐H1975 (EGFRL858R/T790M)", "assay": "Cell viability by sulforhodamine B (SRB) assay, NCI-H1975", "format": "cell-based", "details": "Homo sapiens, 72 h, read-out: cytotoxic activity CC50, NCI‐H1975 (EGFRL858R/T790M)", "experimental": "as §3, §4"}, "EGFRL858R/T790M": {"system": "EGFRL858R/T790M", "design": "method as in PMID 30626888", "details": "in vitro enzymatic model; cited from earlier work"}, "NCI‐H292 (EGFRwt) [6]": {"system": "NCI‐H292 (EGFRwt)", "assay": "Cell viability by MTT assay, NCI-H292", "details": "for IC50: read-out: cytotoxic activity, NCI-H292 (EGFRw.t.)", "experimental": "as §3, §5"}, "PAMPA‐BBB": {"assay": "PAMPA‐BBB", "format": "in vitro ADME", "details": "PAMPA‐BBB", "procedure": "(§2) The lipid mixture that impregnates the filter has a different constitution for the permeability tests for the BBB (brain lipid from pig extract in n‐dodecane) and the GIT (L‐α soy phosphatidylcholine in n‐dodecane). The optical density values obtained in the reading at each selected wavelength, for each of the compounds, were analyzed in comparison with the values of several controls within a calibration curve (≥ 7 drugs). In the case of the BBB, these values were used to elaborate an equation and determine the permeability coefficient (Pe), while GIT used absorbed fraction (Fa%)."}, "PC‐9 (EGFRL858R) [7]": {"system": "PC‐9 (EGFRL858R)", "assay": "Cell viability by MTT assay, PC-9", "details": "Homo sapiens; for IC50: read-out: cytotoxic activity, PC-9 (EGFRL858R)", "experimental": "as §3, §5"}, "PAMPA‐GIT": {"assay": "PAMPA‐GIT", "format": "in vitro ADME", "details": "PAMPA‐GIT", "procedure": "as §2"}, "EGFR in PC‐9 (EGFRL858R)": {"system": "EGFR in PC‐9 (EGFRL858R)", "assay": "EGFR activation by flow cytometry (Muse EGFR‐RTK Activation Dual Detection Kit)", "format": "cell-based, human", "details": "PC‐9, at respective CC50, compared to vehicle (DMSO 1%)", "procedure": "as §1"}, "[8]": {"assay": "Microsomal metabolic stability", "format": "in vitro ADME, rat", "details": "for Metabolism rate: RLM 1 mg/mL, 10 μM, 60 min; for half-life at 10 µM / microsomal CLint at 10 µM: rat, rat liver microsomes", "procedure": "The metabolic stability of compounds LASSBio‐1971 (1) and LASSBio‐1974 (2) (10 μM) was incubated in 1 mg/mL of rat microsomes in the presence and absence of the cofactor (i.e., NADPH‐generating system) at the same concentrations as in the previous section. After mixing and incubating at 37°C in a shaking water bath for 1 h, 500 µL cold acetonitrile containing the internal standard was added to terminate the reaction at different time intervals (0, 15, 30, 45, and 60 min)."}, "[9]": {"assay": "Conjugation with glutathione in rat liver microsomes", "format": "in vitro ADME", "details": "RLM 1 mg/mL, 10 μM, 2 mM GSH, 60 min, LC/MS/MS", "procedure": "Incubation with pooled RLMs (1 mg/mL protein) was conducted in 50 mM potassium phosphate buffer (pH 7.4) at 37°C in an incubator for 60 min. LASSBio‐1971 (1) and P‐chlorophenyl isocyanate (10 μM) and 2 mM GSH were added to the buffer. The incubation was initiated by NADPH‐generating system consisting of 40 mM NADP^+, 350 mM glucose‐6‐phosphate, 5 units/mL glucose‐6‐phosphate dehydrogenase, and 130 mM MgCl2. The incubation was terminated at 60 min by the addition of 1 mL of ACN (with 6% of formic acid, with a total volume of 1.25 mL). The quenched sample was then centrifuged at 10,500 × g for 15 min, and 1 mL of the supernatant was collected to be injected into the Q‐Exactive Plus ESI MS System (Thermo Scientific, USA)."}, "PC‐9 (EGFRL858R) [10]": {"system": "PC‐9 (EGFRL858R)", "assay": "Cell viability by sulforhodamine B (SRB) assay, PC-9", "details": "Homo sapiens, 72 h, read-out: cytotoxic activity CC50, PC‐9 (EGFRL858R)", "experimental": "as §3, §4"}, "EGFRL858R": {"system": "EGFRL858R", "design": "method as in PMID 30626888", "details": "in vitro enzymatic model; cited from earlier work"}, "[11]": {"details": "RLM, NADPH regenerator system: Absence"}, "[12]": {"details": "RLM, NADPH regenerator system: Presence"}},
  "note": "Read-outs that look alike come from different tables or passages of the source.",
  "data": [
    {"smiles": "C=CC(=O)Nc1ccc2ncc(NC(=O)Nc3ccccc3)nc2c1", "note": "[LASSBio‐1971 (1)]", "values": [
      {"measurement": "cell cycle arrest phase", "setting": "PC‐9 (EGFRL858R) [1]", "value": "G0/G1 phase arrest"},
      {"measurement": "IC50", "setting": "EGFRwt", "value": "0.025 ± 0.004", "unit": "µM"},
      {"measurement": "CC50", "setting": "NCI‐H292 (EGFRwt) [2]", "value": 4.95, "unit": "µM"},
      {"measurement": "apoptosis phenotype induction", "setting": "PC‐9 (EGFRL858R) [3]", "value": "could not induce an apoptosis phenotype"},
      {"measurement": "IC50", "setting": "[4]; NCI-H1975, 24 h", "value": 51.3, "unit": "µM"},
      {"measurement": "IC50", "setting": "[4]; NCI-H1975, 48 h", "value": 6.45, "unit": "µM"},
      {"measurement": "CC50", "setting": "[4]; NCI-H1975, 72 h, read-out: cytotoxic activity CC50, NCI‐H1975 (EGFRL858R/T790M)", "value": 5.1, "unit": "µM"},
      {"measurement": "CC50", "setting": "[5]", "value": 18.5, "unit": "µM"},
      {"measurement": "IC50", "setting": "EGFRL858R/T790M", "value": "1.68 ± 1.51", "unit": "µM"},
      {"measurement": "IC50", "setting": "NCI‐H292 (EGFRwt) [6]; Homo sapiens, NCI-H292, 24 h", "value": 18.4, "unit": "µM"},
      {"measurement": "IC50", "setting": "NCI‐H292 (EGFRwt) [6]; Homo sapiens, NCI-H292, 48 h", "value": 8.85, "unit": "µM"},
      {"measurement": "CC50", "setting": "NCI‐H292 (EGFRwt) [6]; Homo sapiens, NCI-H292, 72 h, read-out: cytotoxic activity CC50, NCI‐H292 (EGFRwt), MTT, 72 h", "value": 1.5, "unit": "µM"},
      {"measurement": "CC50", "setting": "NCI‐H292 (EGFRwt) [6]; read-out: cytotoxic activity CC50, NCI‐H292 (EGFRwt), MTT, 72 h", "value": 1.51, "unit": "µM"},
      {"measurement": "Classification BBB", "setting": "PAMPA‐BBB", "value": "CNS +"},
      {"measurement": "Pe. Exp. BBB", "setting": "PAMPA‐BBB; mean ± standard deviation (n = 3)", "value": "4.16 10^−6 cm/s"},
      {"measurement": "Papp", "setting": "PAMPA‐BBB; mean ± standard deviation (n = 3), read-out: Pe. Exp. BBB", "value": "4.16 ± 1.84", "unit": "×10⁻⁶ cm/s"},
      {"measurement": "IC50", "setting": "PC‐9 (EGFRL858R) [7]; 24 h", "value": 6.42, "unit": "µM"},
      {"measurement": "IC50", "setting": "PC‐9 (EGFRL858R) [7]; 48 h", "value": 0.14, "unit": "µM"},
      {"measurement": "CC50", "setting": "PC‐9 (EGFRL858R) [7]; 72 h, read-out: cytotoxic activity CC50, PC‐9 (EGFRL858R)", "value": 0.13, "unit": "µM"},
      {"measurement": "Classification GIT", "setting": "PAMPA‐GIT", "value": "High (high intestinal permeability (70%–100%))"},
      {"measurement": "Fa (absorbed fraction)", "setting": "PAMPA‐GIT", "value": 94.62, "unit": "%"},
      {"measurement": "Papp", "setting": "PAMPA‐GIT; mean ± standard deviation (n = 3), read-out: Pe. Exp. GIT", "value": "7.69 ± 0.7", "unit": "×10⁻⁶ cm/s"},
      {"measurement": "inhibition of phosphorylation and activation of EGFR", "setting": "EGFR in PC‐9 (EGFRL858R)", "value": "inhibit phosphorylation"},
      {"measurement": "Metabolism rate", "setting": "[8]; NADPH regenerator system: Absence", "value": 21.99, "unit": "%"},
      {"measurement": "Metabolism rate", "setting": "[8]; NADPH regenerator system: Presence", "value": 53.93, "unit": "%"},
      {"measurement": "Elimination rate constant (k)", "setting": "[8]; [11]", "value": 0.0039},
      {"measurement": "Elimination rate constant (k)", "setting": "[8]; [12]", "value": 0.0129},
      {"measurement": "t 1/2", "setting": "[8]; [12]", "value": 53.72, "unit": "min"},
      {"measurement": "half-life at 10 µM", "setting": "[8]; [11]", "value": 178, "unit": "min"},
      {"measurement": "microsomal CLint at 10 µM", "setting": "[8]; [11]", "value": 0.975, "unit": "µL/min/mg"},
      {"measurement": "half-life at 10 µM", "setting": "[8]; [12]", "value": 53.7, "unit": "min"},
      {"measurement": "microsomal CLint at 10 µM", "setting": "[8]; [12]", "value": 3.23, "unit": "µL/min/mg"},
      {"measurement": "covalent adduct formation with glutathione", "setting": "[9]", "value": "a covalent adduct between glutathione and LASSBio‐1971 (1) was formed"},
      {"measurement": "CC50", "setting": "PC‐9 (EGFRL858R) [10]", "value": 1.02, "unit": "µM"},
      {"measurement": "IC50", "setting": "EGFRL858R", "value": "0.018 ± 0.003", "unit": "µM"}
    ]}
  ]
}
